Measured values reported in patent US8735417B2, “Aminopyrimidines as Syk inhibitors” (Merck Sharp & Dohme Corp., priority 2009, dated 2014).

What follows are compounds tested against T1, recombinant human GST-SYK (Homo sapiens, UniProt P43405) (assay: Homogeneous Time-Resolved Fluorescence (HTRF) assay for the recombinant human SYK enzyme). Conditions: recombinant human GST-SYK 5 pM, ATP 25 μM, 10-dose titration; read-out: rhSYK Activity (IC50).
T1 construct: purchased Carna Biosciences 08-176
Format: biochemical
Protocol: Homogeneous Time-Resolved Fluorescence (HTRF) Assay for the Recombinant Human SYK Enzyme:
A recombinant GST-hSYK fusion protein was used to measure potency of compounds to inhibit human SYK activity. The recombinant human GST-SYK (Carna Biosciences #08-176) (5 pM final concentration) was incubated with various concentrations of the inhibitor diluted in DMSO (0.1% final concentration) for 10 minutes at room temperature in 15 mM Tris-HCl (pH 7.5), 0.01% tween 20, 2 mM DTT in 384 well plate format. To initiate the reaction the biotinylated substrate peptide (250 nM final concentration) that contains the phosphorylation site for SYK was added with magnesium (5 mM final concentration) and ATP (25 μM final concentration). Final volume of the reaction was 10 μL. Phosphorylation of the peptide was allowed to proceed for 45′ at room temperature. To quench the reaction and detect the phosphorylated product, 2 nM of a Europium-atiti-phosphotyrosine antibody (Perkin Elmer #AD0161) and 70 nM SA-APC (Perkin-Elmer #CR130-100) were added together in 15 mM Tris pH 7.5, 40 mM EDTA, 0.01% tween 20. Final volume of the quenching solution was 10 μL. The resulting HTRF signal was measured after 30 minutes on a EnVision (Perkin-Elmer) reader using a time-resolved fluorescence protocol.
For O=C1OCCN1c1ncc(-c2cccc(Nc3nccc(C(F)(F)F)n3)c2)s1 [Example 175, 3-[5-(3-{[4-(trifluoromethyl)pyrimidin-2-yl]amino}phenyl)-1,3-thiazol-2-yl]-1,3-oxazolidin-2-one], the IC50 was ≤ 100 nM. With CS(=O)(=O)Nc1ncc(-c2cccc(Nc3nccc(C(F)(F)F)n3)c2)s1 [Example 177] the IC50 was ≤ 100 nM. With FC(F)(F)c1ccnc(Nc2cccc(-c3cnc(-n4ccnc4)s3)c2)n1 [Example 178] the IC50 was ≤ 100 nM. In the case of Cc1cc(Nc2nccc(C(F)(F)F)n2)cc(-c2cnc(N3CCOC3=O)s2)c1 [Example 180], the IC50 is reported as ≤ 100 nM. With Nc1ncc(-c2cccc(Nc3nccc(C(F)(F)F)n3)c2)s1 [Example 181, N-[3-(2-amino-1,3-thiazol-5-yl)phenyl]-4-(trifluoromethyl)pyrimidin-2-amine] the IC50 was ≤ 100 nM. With CC(=O)OCC(=O)Nc1ncc(-c2cccc(Nc3nccc(C(F)(F)F)n3)c2)s1 [Example 182, 2-oxo-2-{[5-(3-{[4-(trifluoromethyl)pyrimidin-2-yl]amino}phenyl)-1,3-thiazol-2-yl]amino}ethyl acetate] the IC50 was ≤ 100 nM. O=C(CO)Nc1ncc(-c2cccc(Nc3nccc(C(F)(F)F)n3)c2)s1 [Example 183, 2-hydroxy-N-[5-(3-{[4-(trifluoromethyl)pyrimidin-2-yl]amino}phenyl)-1,3-thiazol-2-yl]acetamide] was tested, and the IC50 was ≤ 100 nM. With CC(=O)Nc1cc(Nc2nccc(C(F)(F)F)n2)cc(-c2cnc(N3CCCNC(=O)C3)s2)c1 [Example 184, N-(3-[2-(3-oxo-1,4-diazepan-1-yl)-1,3-thiazol-5-yl]-5-{[4-(trifluoromethyl)pyrimidin-2-yl]amino}phenyl)acetamide] the IC50 was ≤ 100 nM. For CCNC(=O)Nc1cc(Nc2nccc(C(F)(F)F)n2)cc(-c2cnc(N3CCCNC(=O)C3)s2)c1 [Example 185, 1-ethyl-3-(3-[2-(3-oxo-1,4-diazepan-1-yl)-1,3-thiazol-5-yl]-5-{[4-(trifluoromethyl)pyrimidin-2-yl]amino}phenyl)urea], the IC50 was ≤ 100 nM. CC(=O)Nc1cc(Nc2nccc(C(F)(F)F)n2)cc(-c2cnc(N(C)CCO)s2)c1 [Example 186] was tested, and the IC50 was ≤ 100 nM. CC(=O)Nc1cc(Nc2nccc(C(F)(F)F)n2)cc(-c2cnc(NCCO)s2)c1 [Example 187] was tested, and the IC50 was ≤ 100 nM. In the case of CCNC(=O)Nc1cc(Nc2nccc(C(F)(F)F)n2)cc(-c2cnc(NCCO)s2)c1 [Example 188], the IC50 is reported as ≤ 100 nM. For CN(CCO)c1ncc(-c2cc(N)cc(Nc3nccc(C(F)(F)F)n3)c2)s1 [Example 189], the IC50 was ≤ 100 nM. In the case of Nc1cc(Nc2nccc(C(F)(F)F)n2)cc(-c2cnc(NCCO)s2)c1 [Example 190], the IC50 is reported as ≤ 100 nM. With NC(=O)C1CCN(c2ncc(-c3cccc(Nc4nccc(C(F)(F)F)n4)c3)s2)CC1 [Example 191, 1-[5-(3-{[4-(trifluoromethyl)pyrimidin-2-yl]amino}phenyl)-1,3-thiazol-2-yl]piperidine-4-carboxamide] the IC50 was ≤ 100 nM. In the case of Cc1ccnc(Nc2cccc(-c3cnc(N4CCC(C(=O)O)CC4)s3)c2)n1 [Example 193, 1-(5-{3-[(4-methylpyrimidin-2-yl)amino]phenyl}-1,3-thiazol-2-yl)piperidine-4-carboxylic acid], the IC50 is reported as 100 to 1000 nM. OCCN(CCO)c1ncc(-c2cc(Nc3nccc(C(F)(F)F)n3)cc(N3CCOCC3)c2)s1 [Example 194, 2,2′-({5-[3-(morphpholin-4-yl)-5-{[4-(trifluoromethyl)pyrimidin-2-yl]amino}phenyl]-1,3-thiazol-2-yl}imino)diethanol] was tested, and the IC50 was ≤ 100 nM. In the case of Cc1cc(Nc2nccc(C3CCC3)n2)cc(-c2cnc(N3CCCNC(=O)C3)s2)c1 [Example 195], the IC50 is reported as ≤ 100 nM. For Cc1cc(Nc2nccc(C3CCCCC3)n2)cc(-c2cnc(N3CCCNC(=O)C3)s2)c1 [Example 196, 4-(5-{3-[(4-cyclohexylpyrimidin-2-yl)amino]-5-methylphenyl}-1,3-thiazol-2-yl)-1,4-diazepan-2-one], the IC50 was ≤ 100 nM. For Cc1cc(Nc2nccc(C3CCCC3)n2)cc(-c2cnc(N3CCCNC(=O)C3)s2)c1 [Example 197, 4-(5-{3-[(4-cyclopentylpyrimidin-2-yl)amino]-5-methylphenyl}-1,3-thiazol-2-yl)-1,4-diazepan-2-one], the IC50 was ≤ 100 nM. Cc1cc(Nc2nccc(C3CC3)n2)cc(-c2cnc(N3CCCNC(=O)C3)s2)c1 [Example 198, 4-(5-{3-[(4-cyclopropylpyrimidin-2-yl)amino]-5-methyphenyl}-1,3-thiazol-2-yl)-1,4-diazepan-2-one] was tested, and the IC50 was ≤ 100 nM. In the case of C=Cc1ccnc(Nc2cc(C)cc(-c3cnc(N4CCCNC(=O)C4)s3)c2)n1 [Example 199, 4-(5-{3-[(4-ethenylpyrimidin-2-yl)amino]-5-methylphenyl}-1,3-thiazol-2-yl)-1,4-diazepan-2-one], the IC50 is reported as ≤ 100 nM. For Cc1cc(Nc2ncc(Cl)cn2)cc(-c2cnc(N3CCCNC(=O)C3)s2)c1 [Example 200, 4-(5-{3-[(5-chloropyrimidin-2-yl)amino]-5-methylphenyl}-1,3-thiazol-2-yl)-1,4-diazepan-2-one], the IC50 was ≤ 100 nM. With Cc1cc(Nc2ncc(F)cn2)cc(-c2cnc(N3CCCNC(=O)C3)s2)c1 [Example 201] the IC50 was ≤ 100 nM. With Cc1cc(Nc2ncc(C3CC3)cn2)cc(-c2cnc(N3CCCNC(=O)C3)s2)c1 [Example 202] the IC50 was ≤ 100 nM. In the case of Cc1cnc(Nc2cc(C)cc(-c3cnc(N4CCCNC(=O)C4)s3)c2)nc1 [Example 203], the IC50 is reported as ≤ 100 nM. For Cc1cc(Nc2nccc(C#N)n2)cc(-c2cnc(N3CCCNC(=O)C3)s2)c1 [Example 204], the IC50 was ≤ 100 nM. For COc1ccnc(Nc2cc(C)cc(-c3cnc(N4CCCNC(=O)C4)s3)c2)n1 [Example 205], the IC50 was ≤ 100 nM. In the case of Cc1cc(Nc2nccc(C(C)C)n2)cc(-c2cnc(N3CCCNC(=O)C3)s2)c1 [Example 206], the IC50 is reported as ≤ 100 nM. In the case of CCc1ccnc(Nc2cc(C)cc(-c3cnc(N4CCCNC(=O)C4)s3)c2)n1 [Example 207], the IC50 is reported as ≤ 100 nM. Cc1cc(Nc2nccc(OCc3ccccc3)n2)cc(-c2cnc(N3CCCNC(=O)C3)s2)c1 [Example 208] was tested, and the IC50 was ≤ 100 nM. In the case of COc1nc(Nc2cc(C)cc(-c3cnc(N4CCCNC(=O)C4)s3)c2)ncc1Cl [Example 210, 4-(5-{3-[(5-chloro-4-methoxypyrimidin-2-yl)amino]-5-methylphenyl}-1,3-thiazol-2-yl)-1,4-diazepan-2-one], the IC50 is reported as ≤ 100 nM. For Cc1cc(Nc2ncc(Cl)c(C)n2)cc(-c2cnc(N3CCCNC(=O)C3)s2)c1 [Example 211, 4-(5-{3-[(5-Chloro-4-methylpyrimidin-2-yl)amino]-5-methylphenyl}-1,3-thiazol-2-yl)-1,4-diazepan-2-one], the IC50 was ≤ 100 nM. Cc1cc(Nc2nccc(O[C@@H]3CCNC3)n2)cc(-c2cnc(N3CCCNC(=O)C3)s2)c1 [Example 212, 4-{5-[3-methyl-5-({4-[(3R)-pyrrolidin-3-yloxy]pyrimidin-2-yl}amino)phenyl]-1,3-thiazol-2-yl}-1,4-diazepan-2-one] was tested, and the IC50 was ≤ 100 nM. Cc1cc(Nc2nccc(OC3CCOC3)n2)cc(-c2cnc(N3CCCNC(=O)C3)s2)c1 (stereo not drawn) [Example 214] was tested, and the IC50 was ≤ 100 nM. For Cc1cc(Nc2nccc(OC3CCNCC3)n2)cc(-c2cnc(N3CCCNC(=O)C3)s2)c1 [Example 215, 4-[5-(3-methyl-5-{[4-(piperidin-4-yloxy)pyrimidin-2-yl]amino}phenyl)-1,3-thiazol-2-yl]-1,4-diazepan-2-one], the IC50 was ≤ 100 nM.
